One assay has as its target Carbonic anhydrase 9 (Homo sapiens, UniProt Q16790). Briefly: Inhibition of recombinant human carbonic anhydrase 9 assessed as inhibition of CO2 hydration preincubated for 15 mins prior to testing by phenol red based stopped-flow assay.
The next assay has as its system MCF7. Briefly: Cytotoxicity against human MCF7 cells under hypoxic condition by MTT assay. (Tetrazolium assays rely on reduction of a dye to a coloured formazan, in cell work by metabolically active cells.)
The subject of a further assay is MDA-MB-231. Briefly: Cytotoxicity against human MDA-MB-231 cells under hypoxic condition by MTT assay.

pIC50, pKi: −log10 of the molar value.

On to `Cc1ccc(S(=O)(=O)C/C(=N\Nc2ccc(S(N)(=O)=O)cc2)c2ccccc2)cc1`, for which, on Carbonic anhydrase 9, the pKi – broadly, the negative decadic logarithm of the Ki, by convention in mol/L – is 7.40.
On the same count and under the same terms, next, `Cc1ccc(S(=O)(=O)C/C(=N\Nc2ccc(S(N)(=O)=O)cc2)c2ccsc2)cc1`: 7.25; `NS(=O)(=O)c1ccc(N/N=C(\CS(=O)(=O)c2ccccc2)c2ccc(Cl)cc2)cc1`: 7.46; `Cc1ccc(S(=O)(=O)C/C(=N\Nc2ccc(S(N)(=O)=O)cc2)c2ccc(Br)cc2)cc1`: 7.25.
The same measure, in the same setting: next, `Cc1ccc(S(=O)(=O)C/C(=N\Nc2ccc(S(N)(=O)=O)cc2)c2ccc([N+](=O)[O-])cc2)cc1`: 7.10.
In the case of `NS(=O)(=O)c1ccc(N/N=C(\CS(=O)(=O)c2ccccc2)c2cc3ccccc3o2)cc1`, the pKi at Carbonic anhydrase 9 was 7.16.
As for `NS(=O)(=O)c1ccc(N/N=C(\CS(=O)(=O)c2ccccc2)c2ccc3ccccc3c2)cc1`, the pKi at Carbonic anhydrase 9 was 7.41.
`Cc1ccc(S(=O)(=O)C/C(=N\Nc2ccc(S(N)(=O)=O)cc2)c2ccc(F)cc2)cc1`: the pKi at Carbonic anhydrase 9 was 7.56.
On to `Cc1ccc(S(=O)(=O)C/C(=N\Nc2ccc(S(N)(=O)=O)cc2)c2ccc3ccccc3c2)cc1`, for which, on Carbonic anhydrase 9, the pKi is 7.82.
The same measure, in the same setting: next, `Cc1ccc(/C(CS(=O)(=O)c2ccccc2)=N/Nc2ccc(S(N)(=O)=O)cc2)cc1`: 7.44; `NS(=O)(=O)c1ccc(N/N=C(\CS(=O)(=O)c2ccccc2)c2ccc(F)cc2)cc1`: 8.12.
Take `Cc1ccc(/C(CS(=O)(=O)c2ccc(C)cc2)=N/Nc2ccc(S(N)(=O)=O)cc2)cc1`: on Carbonic anhydrase 9, the pKi is 8.28. Also, the negative logarithm of the IC50 (pIC50) (usually the negative decadic logarithm of the IC50, by convention in mol/L) in the assay on MCF7 is 5.63; with MDA-MB-231, 5.29.
Take `NS(=O)(=O)c1ccc(N/N=C(\CS(=O)(=O)c2ccccc2)c2ccc(-c3ccccc3)cc2)cc1`: on Carbonic anhydrase 9, the pKi was 6.88.
Still for that read-out and setting: for `NS(=O)(=O)c1ccc(N/N=C(\CS(=O)(=O)c2ccccc2)c2ccc(Br)cc2)cc1` the value was 7.21.
Regarding `Cc1ccc(S(=O)(=O)C/C(=N\Nc2ccc(S(N)(=O)=O)cc2)c2ccc(Cl)cc2)cc1`, the pKi at Carbonic anhydrase 9 was 8.06. Moreover, the pIC50 in the assay with MCF7 was 5.41; in the assay on MDA-MB-231, 4.74.
As for `NS(=O)(=O)c1ccc(N/N=C(\CS(=O)(=O)c2ccccc2)c2ccco2)cc1`, the pKi at Carbonic anhydrase 9 was 7.10.
The same measure, in the same setting: next, `NS(=O)(=O)c1ccc(N/N=C(\CS(=O)(=O)c2ccccc2)c2ccc([N+](=O)[O-])cc2)cc1`: 7.15.
In the assay with MCF7, `COc1cccc2c1C(=O)c1c(O)c3c(c(O)c1C2=O)C[C@@](O)(C(=O)CO)C[C@@H]3O[C@H]1C[C@H](N)[C@H](O)[C@H](C)O1` [DOXORUBICIN] gave a pIC50 of 6.43.

The values above are taken from ChEMBL document CHEMBL4152225, “Dual-tail arylsulfone-based benzenesulfonamides differently match the hydrophobic and hydrophilic halves of human carbonic anhydrases active sites: Selective inhibitors for the tumor-associated hCA IX isoform” (Eur J Med Chem, 2018).
